Read-outs that look alike come from different tables or passages of the source.

Holding throughout (assay type): cell-based
Assay [1] deals with HepG2 (hepatocellular carcinoma). Briefly: in vitro cytotoxicity assay (Cell-Titer-Glo), HepG2. The conditions noted are these: Homo sapiens, HepG2, 96 h, 4 days. The procedure:
(§1) To evaluate cell killing of cancer cell lines, an in vitro cytotoxicity assay was performed. The tumor cell lines used were purchased from the American Type Culture Collection, and are identified as follows: Panc-1 (pancreas), MiaPaCa-2 (pancreas), MCF-7 (breast), HT-29 (colon), U2-OS (osteosarcoma), OVCAR-3 (ovary), HepG2 (hepatocellular carcinoma) and TT (medullary thyroid). The assay utilized the Cell-Titer-Glo Non-Radioactive Cell Proliferation Assay (Promega Corp., Madison, Wis.). First the cells were cultured in RPMI 1640 medium (Cat# 21870-076, Invitrogen Corporation) supplemented with 300 mg/L L-glutamine, 100 units/ml penicillin, 100 μg/ml streptomycin and 10% fetal bovine serum. All the cell lines were incubated in a humidified incubator at 37° C. with 5% CO2 atmosphere.
(§2) Cells were plated at a density of 2000 to 10000 cells per well, depending on their growth rate, in 0.09 mL medium on day 0 in 96-well Microlite TCT microtiter plates (7418, Thermo Labsystems, Franklin, Mass.). On day 1, 10 μL of serial dilutions of the individual compounds were added to the plates in replicates of 3. After incubation for 4 days at 37° C. in a humidified incubator, the cells were lysed in the Cell-Titer-Glo reagent, which also contains luciferase enzyme. The luciferase reaction utilizes ATP released from lysed cells to produce light, the intensity of which is linearly related to the amount of ATP. Thus, the amount of light produced is a reflection of the number of cells remaining in the well after drug treatment. This luminescence was measured using a Luminoskan luminometer (Thermo Electron Corp., Vantaa, Finland) Data were expressed as the percentage of survival of control cells calculated from the luminescence corrected for background. The surviving percent of cells was determined by dividing the mean luminescence values of the treated wells by the mean luminescence values of the control and multiplying by 100.
as §1, with “Briefly,” for “To evaluate cell killing of cancer cell lines, an in vitro cytotoxicity assay was performed. The”, “thyroid), PC-3 (prostate) and A549 (lung).” for “thyroid).”
as §1, with “carcinoma), PC-3 (prostate),” for “carcinoma)”, “A549 (lung).” for “TT (medullary thyroid).”
(§3) Cells were plated at a density of 2000 to 10000 cells per well, depending on their growth rate, in 0.09 mL medium on day 0 in 96-well Microlite TCT microtiter plates (#7418, Thermo Labsystems, Franklin, Mass.). On day 1, 10 μL of serial dilutions of the individual compounds were added to the plates in replicates of 3. After incubation for 4 days at 37° C. in a humidified incubator, the cells were lysed in the Cell-Titer-Glo reagent, which also contains luciferase enzyme. […]

The next assay deals with Panc-1 (pancreas). Kind of assay: in vitro cytotoxicity assay (Cell-Titer-Glo), Panc-1. The following applies: Homo sapiens, PANC-1, 96 h, 4 days. The protocol: as §1, §2
as §1, with “Briefly,” for “To evaluate cell killing of cancer cell lines, an in vitro cytotoxicity assay was performed. The”, “thyroid), PC-3 (prostate) and A549 (lung).” for “thyroid).”
as §1, with “carcinoma), PC-3 (prostate),” for “carcinoma)”, “A549 (lung).” for “TT (medullary thyroid).”
as §3

For a further assay, the system named is U2-OS (osteosarcoma). Briefly: in vitro cytotoxicity assay (Cell-Titer-Glo), U2-OS. The conditions noted are these: Homo sapiens, U2OS, 96 h, 4 days. The protocol:
as §1, §2
as §1, with “Briefly,” for “To evaluate cell killing of cancer cell lines, an in vitro cytotoxicity assay was performed. The”, “thyroid), PC-3 (prostate) and A549 (lung).” for “thyroid).”
as §1, with “carcinoma), PC-3 (prostate),” for “carcinoma)”, “A549 (lung).” for “TT (medullary thyroid).”
as §3

Another assay has as its system HT-29 (colon). Briefly: in vitro cytotoxicity assay (Cell-Titer-Glo), HT-29. The conditions noted are these: Homo sapiens, HT-29, 96 h, 4 days. The procedure: as §1, §2
as §1, with “Briefly,” for “To evaluate cell killing of cancer cell lines, an in vitro cytotoxicity assay was performed. The”, “thyroid), PC-3 (prostate) and A549 (lung).” for “thyroid).”
as §1, with “carcinoma), PC-3 (prostate),” for “carcinoma)”, “A549 (lung).” for “TT (medullary thyroid).”
as §3

In a further assay the test system is A549 (lung). Kind of assay: in vitro cytotoxicity assay (Cell-Titer-Glo), A549. The following applies: Homo sapiens, A549, 96 h, 4 days. The procedure:
as §1, with “Briefly,” for “To evaluate cell killing of cancer cell lines, an in vitro cytotoxicity assay was performed. The”, “thyroid), PC-3 (prostate) and A549 (lung).” for “thyroid).”
as §2
as §1, with “carcinoma), PC-3 (prostate),” for “carcinoma)”, “A549 (lung).” for “TT (medullary thyroid).”
as §2, with “(#7418,” for “(7418,”, “100. […]” for “100.”

A further assay relates to PC-3 (prostate). Briefly: in vitro cytotoxicity assay (Cell-Titer-Glo), PC-3. The following applies: 96 h, 4 days. The protocol:
as §1, with “Briefly,” for “To evaluate cell killing of cancer cell lines, an in vitro cytotoxicity assay was performed. The”, “thyroid), PC-3 (prostate) and A549 (lung).” for “thyroid).”
as §2
as §1, with “carcinoma), PC-3 (prostate),” for “carcinoma)”, “A549 (lung).” for “TT (medullary thyroid).”
as §2, with “(#7418,” for “(7418,”, “100. […]” for “100.”

A further assay has as its system OVCAR-3 (ovary). Briefly: in vitro cytotoxicity assay (Cell-Titer-Glo), OVCAR-3. The following applies: Homo sapiens, OVCAR-3, 96 h, 4 days. The procedure: as §1, §2
as §1, with “Briefly,” for “To evaluate cell killing of cancer cell lines, an in vitro cytotoxicity assay was performed. The”, “thyroid), PC-3 (prostate) and A549 (lung).” for “thyroid).”
as §1, with “carcinoma), PC-3 (prostate),” for “carcinoma)”, “A549 (lung).” for “TT (medullary thyroid).”
as §3

A further assay has as its system MiaPaCa-2 (pancreas). Briefly: in vitro cytotoxicity assay (Cell-Titer-Glo), MiaPaCa-2. The following applies: Homo sapiens, MIA PaCa-2, 96 h, 4 days. The procedure:
as §1, §2
as §1, with “Briefly,” for “To evaluate cell killing of cancer cell lines, an in vitro cytotoxicity assay was performed. The”, “thyroid), PC-3 (prostate) and A549 (lung).” for “thyroid).”
as §1, with “carcinoma), PC-3 (prostate),” for “carcinoma)”, “A549 (lung).” for “TT (medullary thyroid).”
as §3

The mark [2] stands for this setting: Table 9, read-out: IC50 OVCAR-3.
Where [3] appears, read: Table 9, read-out: IC50 MiaPaCa-2.

Consider `COc1cc2[nH]c3ncnc(N4CCN(C(=S)Nc5ccc(S(C)(=O)=O)cc5)CC4)c3c2cc1OC` [Compound 1-115], for which the IC50 in assay [1] (Example 20, read-out: Cell-based IC50 values HepG2) turned out to be 57.9 µM; with Panc-1 (pancreas) (Example 20, read-out: Cell-based IC50 values Panc-1), 49.8 µM; in the assay with U2-OS (osteosarcoma) (Example 20, read-out: Cell-based IC50 values U2-Os) it was 50.4 µM; in the assay on HT-29 (colon) (Example 20, read-out: Cell-based IC50 values HT-29) it was 97.4 µM; with A549 (lung) (Example 20, read-out: Cell-based IC50 values A549) it was 149 µM; with PC-3 (prostate) (Example 20, read-out: Cell-based IC50 values PC-3), 75.7 µM. The IC50 was found to be 175 µM in the assay on OVCAR-3 (ovary) (Example 20, read-out: Cell-based IC50 values OVCAR-3) and 55.4 µM with MiaPaCa-2 (pancreas) (Example 20, read-out: Cell-based IC50 values MiaPaCa-2).
`COc1cc2[nH]c3ncnc(N4CCN(C(=S)Nc5ccc(S(=O)(=O)Nc6ccc(F)cc6)cc5)CC4)c3c2cc1OC` [Compound 2-3, 4-(6,7-dimethoxy-9H-pyrimido[4,5-b]indol-4-yl)-N-(4-(N-(4-fluorophenyl)sulfamoyl)phenyl)piperazine-1-carbothioamide]: the IC50 worked out at 9.02 µM in assay [1] (Table 9, read-out: IC50 HepG2); 22.3 µM with Panc-1 (pancreas) (Table 9, read-out: IC50 Panc-1); 8.18 µM with U2-OS (osteosarcoma) (Table 9, read-out: IC50 U2-OS); 6.42 µM in the assay on HT-29 (colon) (Table 9, read-out: IC50 HT-29); 23 µM in the assay with A549 (lung) (Table 9, read-out: IC50 A549); 8.78 µM with PC-3 (prostate) (Table 9, read-out: IC50 PC-3). Besides, the IC50 in the assay on OVCAR-3 (ovary) (setting [2]) was 9.14 µM; in the assay on MiaPaCa-2 (pancreas) (setting [3]), 7.19 µM.
For `COc1ccc2c(c1)[nH]c1ncnc(N3CCN(C(=S)Nc4ccc(S(=O)(=O)Nc5ccc(F)cc5)cc4)CC3)c12` [Compound 2-5, 4-(7-methoxy-9H-pyrimido[4,5-b]indol-4-yl)-N-(4-(N-(4-fluorophenyl)sulfamoyl)phenyl)piperazine-1-carbothioamide], the IC50 worked out at 8 µM in assay [1] (Table 9, read-out: IC50 HepG2); 10.7 µM in the assay on Panc-1 (pancreas) (Table 9, read-out: IC50 Panc-1); 8.49 µM with U2-OS (osteosarcoma) (Table 9, read-out: IC50 U2-OS); 6.93 µM in the assay on HT-29 (colon) (Table 9, read-out: IC50 HT-29); 6.73 µM with A549 (lung) (Table 9, read-out: IC50 A549); 7.68 µM in the assay with PC-3 (prostate) (Table 9, read-out: IC50 PC-3). Also, the results for the IC50 in the assay with OVCAR-3 (ovary) (setting [2]) and in the assay with MiaPaCa-2 (pancreas) (setting [3]) were 6.79 µM and 6.89 µM, respectively.
For `Cc1ccc(NS(=O)(=O)c2ccc(NC(=S)N3CCN(c4ncnc5[nH]c6cc(Cl)c(N7CCOCC7)cc6c45)CC3)cc2)cc1` [Compound 2-9, 4-(7-chloro-6-morpholino-9H-pyrimido[4,5-b]indol-4-yl)-N-(4-(N-tolylsulfamoyl)phenyl)piperazine-1-carbothioamide], the IC50 in assay [1] (Table 9, read-out: IC50 HepG2) amounted to 25.6 µM; with Panc-1 (pancreas) (Table 9, read-out: IC50 Panc-1), 85.2 µM; with U2-OS (osteosarcoma) (Table 9, read-out: IC50 U2-OS), 8.56 µM; in the assay with HT-29 (colon) (Table 9, read-out: IC50 HT-29), 8 µM; with A549 (lung) (Table 9, read-out: IC50 A549), 19.4 µM; in the assay on PC-3 (prostate) (Table 9, read-out: IC50 PC-3), 8.25 µM. Besides, the IC50 with OVCAR-3 (ovary) (setting [2]) was 7.61 µM; in the assay on MiaPaCa-2 (pancreas) (setting [3]), 26.9 µM.

As usually defined, the IC50 is the concentration needed to halve the response being measured.

The values are drawn from US20080207632A1, “PROTEIN KINASE INHIBITORS” (SUPERGEN, INC., priority 2006, published 2008).
